Results taken from patent US10856562B2, “Flavor composition and edible compositions containing same” (MARS, INCORPORATED, priority 2013, dated 2020).
“Also recorded” adds a separate entry of the source. Square brackets hold non-standard residues; d marks the D form. Ends that are not written are not given here. pGlu = O=C1CC[C@@H](C(=O)O)N1

Experiments:
panelists [1] = assay: Descriptive profile (Spectrum method) of peptide in 0.2% NaCl solution, in-mouth; type: in vivo, human; conditions: for Astringent, in-mouth perception / Bitter, in-mouth perception / Flinty/Mineral, in-mouth perception / Metallic, in-mouth perception / Numbing, in-mouth perception / Salt, in-mouth perception (mean salt perception in-mouth) / Sour, in-mouth perception / Sweet, in-mouth perception: mean score, 15-point scale; for Salt perception in-mouth as the concentration increases: 0.1 to 40.0/50.0 ppb in 0.2% NaCl
Protocol: Descriptive Profiles (Flavor and Chemical Feeling Factors) of five use levels of a pGlu-Val-Leu flavor composition were determined using the Spectrum™ method. The five use levels were as follows: 0.1 ppb, 0.5 ppb, 1.0 ppb, 10.0 ppb and 40.0 ppb.
Data was collected for the flavor and chemical feeling factors of the product in-mouth for each of the five use levels according to the following protocol. One replication was collected for the flavor and chemical feeling factors of the product in-mouth. 6-9 panelists evaluated per session.
2. Each panelist tasted a test sample (0.1 ppb, 0.5 ppb, 1.0 ppb, 10.0 ppb or 40.0 ppb all in 0.2% NaCl solution). Only one sample was tasted per session.
Descriptive attributes (e.g., taste, flavor and chemical feeling factors) of six use levels of pGlu-Val-Leu (SE-13), pGlu-Val (SE-14) and pGlu-Val-Val (SE-17) flavor composition peptides were determined. The six use levels were as follows: 0.1 ppb, 0.5 ppb, 1.0 ppb, 10.0 ppb, 40.0 ppb and 50.0 ppb.
Data was collected for the attributes of the product in-mouth for the use levels according to the following protocol: • The samples were analyzed for flavor and aftertaste by six-nine members of a panel, trained and experienced in appearance, flavor and texture evaluation using the Spectrum™ method. Samples in solution were evaluated across multiple panel sessions. • The strength of each attribute was rated on a 15-point scale, where 0=none and 15=very strong. • This scale incorporates the ability to use tenths of a point and therefore has the potential of 150 scale differentiations. • The scale may be expanded beyond 15 points to include extreme ratings if necessary.
(§1) Attribute Perception Protocol • The panelists evaluated each sample using the following procedure • Descriptive Profiles (flavor and chemical feeling factors) of 5 levels of salt enhancing solutions • Individual data was collected for the flavor and chemical feeling factors of the product in-mouth • Increased Salt Perception Protocol • Each panelist tasted salt 5 reference (0.35% salt solution)—to ground themselves on salt intensity of 5.0. • Each panelist tasted the test sample (0.1 ppb, 0.5 ppb, 1.0 ppb, 10.0 ppb or 40.0/50.0 ppb all in 0.2% NaCl solution: only one per session) • Each panelist then re-tasted the salt 5 reference and rated it for salt intensity as well as any other basic taste, chemical feeling factor, or aromatic perceived. This captured any increased salt perception indicated by the test sample as well as any other perceptions present. • Return to Baseline Protocol • After evaluating the sample for salt & other perceptions, panelists re-tasted the salt 5 reference at 1 minute intervals until their perception of the salt 5 saltiness intensity had returned to 5.0. Each panelist recorded their salt intensity at each interval and took qualitative notes on other perceptions seen in aftertaste. Sample Preparation
The 0.1, 0.5, 1.0 10, 40, and 50 ppb test samples of the flavor composition peptides were prepared in water as described in table 4.
The panelists evaluated each sample for the attributes described in table 5.

panelists [2] = assay: Return to baseline protocol: salt reference re-tasted at 1 minute intervals; type: in vivo, human; conditions: for Time needed to return to baseline as the concentration increases: 0.1 to 40.0/50.0 ppb
Protocol: as §1, with “After evaluating the sample for salt and other perceptions (step 3 above), each panelist re-tasted the salt reference (5.0 intensity) at 1 minute intervals until their perception of the saltiness intensity of the reference returned to 5.0. Each panelist recorded salt intensity at each interval and took qualitative notes on other perceptions seen in aftertaste. Attribute” for “Attribute”

[pGlu]-Val-Leu [SE-13]
Astringent, in-mouth perception (panelists [1]; 0.1 ppb in 0.2% NaCl): 0.0 | Bitter, in-mouth perception (panelists [1]; 0.1 ppb in 0.2% NaCl): 0.0 | Flinty/Mineral, in-mouth perception (panelists [1]; 0.1 ppb in 0.2% NaCl): 0.1 | Metallic, in-mouth perception (panelists [1]; 0.1 ppb in 0.2% NaCl): 0.1 | Numbing, in-mouth perception (panelists [1]; 0.1 ppb in 0.2% NaCl): 0.0 | Salt, in-mouth perception (mean salt perception in-mouth) (panelists [1]; 0.1 ppb in 0.2% NaCl): 2.3 | Sour, in-mouth perception (panelists [1]; 0.1 ppb in 0.2% NaCl): 0.0 | Sweet, in-mouth perception (panelists [1]; 0.1 ppb in 0.2% NaCl): 0.0 | Level of the aromatics, basic tastes and chemical feeling factors in-mouth with increasing concentration (panelists [1]; 0.1 to 40.0/50.0 ppb): does not increase | Salt perception in-mouth as the concentration increases (panelists [1]): does not increase notably; also recorded: Does not show a notable increase | Salt perception in-mouth as the concentration increases (panelists [1]; listed as pGlu-Val-Leu): did not significantly increase | Astringent, in-mouth perception (panelists [1]; 0.5 ppb in 0.2% NaCl): 0.0 | Bitter, in-mouth perception (panelists [1]; 0.5 ppb in 0.2% NaCl): 0.0 | Flinty/Mineral, in-mouth perception (panelists [1]; 0.5 ppb in 0.2% NaCl): 0.3 | Metallic, in-mouth perception (panelists [1]; 0.5 ppb in 0.2% NaCl): 0.3 | Numbing, in-mouth perception (panelists [1]; 0.5 ppb in 0.2% NaCl): 0.0 | Salt, in-mouth perception (mean salt perception in-mouth) (panelists [1]; 0.5 ppb in 0.2% NaCl): 2.8 | Sour, in-mouth perception (panelists [1]; 0.5 ppb in 0.2% NaCl): 0.0 | Sweet, in-mouth perception (panelists [1]; 0.5 ppb in 0.2% NaCl): 0.2 | Astringent, in-mouth perception (panelists [1]; 1.0 ppb in 0.2% NaCl): 0.0 | Bitter, in-mouth perception (panelists [1]; 1.0 ppb in 0.2% NaCl): 0.0 | Flinty/Mineral, in-mouth perception (panelists [1]; 1.0 ppb in 0.2% NaCl): 0.5 | Metallic, in-mouth perception (panelists [1]; 1.0 ppb in 0.2% NaCl): 0.1 | Numbing, in-mouth perception (panelists [1]; 1.0 ppb in 0.2% NaCl): 0.0 | Salt, in-mouth perception (mean salt perception in-mouth) (panelists [1]; 1.0 ppb in 0.2% NaCl): 2.3 | Sour, in-mouth perception (panelists [1]; 1.0 ppb in 0.2% NaCl): 0.0 | Sweet, in-mouth perception (panelists [1]; 1.0 ppb in 0.2% NaCl): 0.0 | Astringent, in-mouth perception (panelists [1]; 10.0 ppb in 0.2% NaCl): 0.0 | Bitter, in-mouth perception (panelists [1]; 10.0 ppb in 0.2% NaCl): 0.0 | Flinty/Mineral, in-mouth perception (panelists [1]; 10.0 ppb in 0.2% NaCl): 0.3 | Metallic, in-mouth perception (panelists [1]; 10.0 ppb in 0.2% NaCl): 0.1 | Numbing, in-mouth perception (panelists [1]; 10.0 ppb in 0.2% NaCl): 0.0 | Salt, in-mouth perception (mean salt perception in-mouth) (panelists [1]; 10.0 ppb in 0.2% NaCl): 3.1 | Sour, in-mouth perception (panelists [1]; 10.0 ppb in 0.2% NaCl): 0.0 | Sweet, in-mouth perception (panelists [1]; 10.0 ppb in 0.2% NaCl): 0.0 | Astringent, in-mouth perception (panelists [1]; 40.0 ppb in 0.2% NaCl): 0.0 | Bitter, in-mouth perception (panelists [1]; 40.0 ppb in 0.2% NaCl): 0.0 | Flinty/Mineral, in-mouth perception (panelists [1]; 40.0 ppb in 0.2% NaCl): 0.4 | Metallic, in-mouth perception (panelists [1]; 40.0 ppb in 0.2% NaCl): 0.1 | Numbing, in-mouth perception (panelists [1]; 40.0 ppb in 0.2% NaCl): 0.0 | Salt, in-mouth perception (mean salt perception in-mouth) (panelists [1]; 40.0 ppb in 0.2% NaCl): 2.8 | Sour, in-mouth perception (panelists [1]; 40.0 ppb in 0.2% NaCl): 0.0 | Sweet, in-mouth perception (panelists [1]; 40.0 ppb in 0.2% NaCl): 0.0 | Umami like swelling of lips and tongue, in-mouth (panelists [1]; all levels): Panelists also experience Umami like swelling of lips and tongue | Umami like feeling factor of lip and tongue swelling (panelists [1]; both in-mouth and after expectoration): Shows umami like feeling factor of lip and tongue swelling | Mean time needed to return to baseline (panelists [2]; 0.1 ppb in 0.2% NaCl): 7.6 min | Mean time needed to return to baseline (min.) (panelists [2]; 0.1 ppb in 0.2% NaCl): 7.6 min | Time needed to return to baseline as the concentration increases (panelists [2]): increases notably from 0.1 ppb to 0.5 ppb and from 10.0 ppb to 40.0 ppb; also recorded: does not necessarily increase | Time needed to return to baseline as the concentration increases (panelists [2]; listed as pGlu-Val-Leu): did not necessarily increase | Mean time needed to return to baseline (panelists [2]; 0.5 ppb in 0.2% NaCl): 9.5 min | Mean time needed to return to baseline (min.) (panelists [2]; 0.5 ppb in 0.2% NaCl): 9.5 min | Mean time needed to return to baseline (panelists [2]; 1.0 ppb in 0.2% NaCl): 8.7 min | Mean time needed to return to baseline (min.) (panelists [2]; 1.0 ppb in 0.2% NaCl): 8.7 min | Mean time needed to return to baseline (panelists [2]; 10.0 ppb in 0.2% NaCl): 8.6 min | Mean time needed to return to baseline (min.) (panelists [2]; 10.0 ppb in 0.2% NaCl): 8.6 min | Mean time needed to return to baseline (panelists [2]; 40.0 ppb in 0.2% NaCl): 13.1 min | Mean time needed to return to baseline (min.) (panelists [2]; 40.0 ppb in 0.2% NaCl): 13.1 min | Time needed to return to baseline, comparison of SE-13, SE-14 and SE-17 (panelists [2]; overall): greatest
